Measured values from US4578397A, “Indeno(1,2-b)pyrrole derivatives” (Yoshitomi Pharmaceutical Industries, Ltd., priority 1982, dated 1986).

What was measured:
[1] = system: picrotoxin-induced lethality; assay: Anti-picrotoxin effect (anti-lethal), oral; type: in vivo, male dd-mice; settings: Mus musculus, 0.5 h, read-out: Anti-picrotoxin-lethal effect, ED50
Procedure: 1. Anti-picrotoxin Effect
Groups of 7-14 male dd-mice were used. Picrotoxin (5 mg/kg) was administered subcutaneously 60 minutes after the oral administration of test compound, and the 50% anti-lethal dose (ED50) was calculated from the servival rate within 30 minutes.

[2] = system: bicuculline-induced tonic convulsion; assay: Anti-bicuculline effect (anti-tonic convulsion), oral; type: in vivo; settings: Mus musculus, 5 min; bicuculline 0.6 mg/kg i.v. 60 min after oral test compound; protection of 50% against tonic convulsion within 5 min; male dd-mice; read-out: Anti-bicuculline-convulsive effect, ED50
Procedure: 2. Anti-bicuculline Effect
Groups of 4-14 male dd-mice were used. Bicuculline (0.6 mg/kg) was administered intravenously 60 minutes after the oral administration of test compound, and the ED50, the dose required to protect 50% of the animals against tonic convulsion within 5 minutes was determined.

[3] = administered peripherally; cited from earlier work

Structure (SMILES)	ED50 [1] [mg/kg]	ED50 [2] [mg/kg]	transmission through the blood-brain barrier [3]
CN1C(=O)CC2Cc3c(Cl)cccc3C21 (centres unmarked) [B, 5-chloro-1-methyl-1,2,3,3a,4,8b-hexahydro-indeno[1,2-a]pyrrol-2-one]	36	68	–
O=C1CC2Cc3ccc(F)cc3C2N1 (centres unmarked) [D, 7-Fluoro-1,2,3,3a,4,8b-hexahydro-indeno[1,2-b]pyrrol-2-one]	48	56	–
O=C1CC2Cc3ccccc3C2N1 (centres unmarked) [Compound E, 1,2,3,3a,4,8bHexahydro-indeno[1,2b]pyrrol2-one, reference compound]	> 100	> 100	–
O=C1CC2Cc3c(Cl)cccc3C2N1 (centres unmarked) [A, 5-chloro-1,2,3,3a,4,8b-hexahydro-indeno[1,2-b]pyrrol-2-one]	18	75	–
NCCCC(=O)O [GABA, gamma-aminobutyric acid]	–	–	hard to transmit through the blood-brain barrier
Fc1ccc2c(c1)CC1CC(=S)NC21 (centres unmarked) [C, 6-Fluoro-1,2,3,3a,4,8b-hexahydro-indeno[1,2-b]pyrrol-2-thione]	45	70	–
